Test results as given in ChEMBL document CHEMBL1132960, “Consensus bioactive conformation of cyclic GnRH antagonists defined by NMR and molecular modeling” (J Med Chem, 2000).
Values belong to the compound of their own block, whether it stands above or below them. Where a SMILES comes first, the peptide text is derived from it. Bridges are numbered along the chain shown (N, C = ends). [ ]: non-standard residue; d: D form. dPhe(4-Cl) = N[C@H](Cc1ccc(Cl)cc1)C(=O)O; d2Nal = N[C@H](Cc1ccc2ccccc2c1)C(=O)O; d3Pal = N[C@H](Cc1cccnc1)C(=O)O; NMeL = CN[C@@H](CC(C)C)C(=O)O; ΔPro = O=C(O)[C@@H]1C=CCN1; Dab = NCC[C@H](N)C(=O)O; Dap = NC[C@H](N)C(=O)O; βAla = NCCC(=O)O

Legend:
[1] = species on record: Rattus norvegicus; test: Number of rats ovulating over total at a dose of 10 ug/rat (2/20); format: functional
[2] = species on record: Rattus norvegicus; test: Number of rats ovulating over total at a dose of 2.5 ug/rat (2/8); format: functional
[3] = species on record: Rattus norvegicus; test: Number of rats ovulating over total at a dose of 5 ug/rat (2/8); format: functional
[4] = species on record: Rattus norvegicus; test: Number of rats ovulating over total at a dose of 5 ug/rat (3/20); format: functional
[5] = species on record: Rattus norvegicus; test: Number of rats ovulating over total at a dose of 1000 ug/rat (5/8); format: functional
[6] = target: T1, Gonadotropin-releasing hormone receptor (Homo sapiens, UniProt P30968); test: Binding affinity towards Gonadotropin-releasing hormone receptor
T1 sequence (P30968 whole entry): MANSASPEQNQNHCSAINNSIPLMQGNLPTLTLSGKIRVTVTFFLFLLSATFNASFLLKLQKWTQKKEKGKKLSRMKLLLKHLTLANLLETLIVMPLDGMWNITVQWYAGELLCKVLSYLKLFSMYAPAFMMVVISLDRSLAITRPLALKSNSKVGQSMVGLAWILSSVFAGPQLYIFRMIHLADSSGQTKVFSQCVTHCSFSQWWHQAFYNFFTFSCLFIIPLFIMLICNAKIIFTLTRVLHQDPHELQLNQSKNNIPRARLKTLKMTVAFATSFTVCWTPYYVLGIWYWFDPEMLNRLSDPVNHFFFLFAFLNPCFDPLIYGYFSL

SMILES: CC(=O)N1CC=C[C@H]1C(=O)N[C@H](Cc1ccc(F)cc1)C(=O)N[C@H](Cc1c[nH]c2ccccc12)C(=O)N[C@H]1CC(=O)NC[C@@H](C(N)=O)NC(=O)[C@@H]2CCCN2C(=O)[C@H](CCCN=C(N)N)NC(=O)[C@H](CC(C)C)NC(=O)[C@@H](Cc2ccc3ccccc3c2)NC(=O)[C@H](Cc2ccc(O)cc2)NC1=O
- No. of rats [1]: 2

SMILES: CC(=O)N[C@H]1CCC(=O)NCC(=O)NCC[C@@H]2NC(=O)[C@H](CC(=O)NC[C@@H](C(N)=O)NC(=O)[C@@H]3CCCN3C(=O)[C@H](CCCN=C(N)N)NC(=O)[C@H](CC(C)C)NC(=O)[C@@H](Cc3ccc4ccccc4c3)NC2=O)NC(=O)[C@@H](Cc2c[nH]c3ccccc23)NC(=O)[C@@H](Cc2ccc(Cl)cc2)NC1=O
- No. of rats [2]: 2

SMILES: CC(=O)N[C@H](Cc1ccc2ccccc2c1)C(=O)N[C@H](Cc1ccc(Cl)cc1)C(=O)N[C@H](Cc1cccnc1)C(=O)N[C@H]1CC(=O)NC[C@@H](C(N)=O)NC(=O)[C@@H]2CCCN2C(=O)[C@@H]2CCNC(=O)CNC(=O)CC[C@H](NC1=O)C(=O)N[C@H](CCCN=C(N)N)C(=O)N[C@@H](CC(C)C)C(=O)N2 (Ac-[d2Nal][dPhe(4-Cl)][d3Pal]DE[dR]L[Dab]P[Dap]-NH2; lactam 4-10; linker 5-8 via G) [listing 1 of 2 here]
- No. of rats [3]: 2

SMILES: CC(=O)N[C@H](Cc1ccc2ccccc2c1)C(=O)N[C@H](Cc1ccc(Cl)cc1)C(=O)N[C@H](Cc1c[nH]c2ccccc12)C(=O)N[C@H]1CC(=O)NC[C@@H](C(N)=O)NC(=O)[C@@H]2CCCN2C(=O)[C@@H]2CCCCNC(=O)CC[C@H](NC1=O)C(=O)N[C@H](CCCN=C(N)N)C(=O)N[C@@H](CC(C)C)C(=O)N2 (Ac-[d2Nal][dPhe(4-Cl)][dW]DE[dR]LKP[Dap]-NH2; lactam 4-10, 5-8) [listing 1 of 2 here]
- No. of rats [4]: 3

SMILES: CC(C)C[C@H]1C(=O)N[C@@H](CCCN=C(N)N)C(=O)N2CCC[C@H]2C(=O)NCCC(=O)N2CC=C[C@H]2C(=O)N[C@H](Cc2ccc(Cl)cc2)C(=O)N[C@H](Cc2c[nH]c3ccccc23)C(=O)N[C@@H](CO)C(=O)N[C@@H](Cc2ccc(O)cc2)C(=O)N[C@H](Cc2c[nH]c3ccccc23)C(=O)N1C (cyclo([NMeL]RP[βAla][ΔPro][dPhe(4-Cl)][dW]SY[dW]))
- No. of rats [5]: 5

- Ki [6]: 0.32 nM
SMILES: CC(=O)N[C@H](Cc1ccc2ccccc2c1)C(=O)N[C@H](Cc1ccc(Cl)cc1)C(=O)N[C@H](Cc1c[nH]c2ccccc12)C(=O)N[C@H]1CC(=O)NC[C@@H](C(N)=O)NC(=O)[C@@H]2CCCN2C(=O)[C@@H]2CCCCNC(=O)CC[C@H](NC1=O)C(=O)N[C@H](CCCN=C(N)N)C(=O)N[C@@H](CC(C)C)C(=O)N2 (Ac-[d2Nal][dPhe(4-Cl)][dW]DE[dR]LKP[Dap]-NH2; lactam 4-10, 5-8) [listing 2 of 2 here]

- Ki [6]: 0.14 nM
SMILES: CC(=O)N[C@H](Cc1ccc2ccccc2c1)C(=O)N[C@H](Cc1ccc(Cl)cc1)C(=O)N[C@H](Cc1cccnc1)C(=O)N[C@H]1CC(=O)NC[C@@H](C(N)=O)NC(=O)[C@@H]2CCCN2C(=O)[C@@H]2CCNC(=O)CNC(=O)CC[C@H](NC1=O)C(=O)N[C@H](CCCN=C(N)N)C(=O)N[C@@H](CC(C)C)C(=O)N2 (Ac-[d2Nal][dPhe(4-Cl)][d3Pal]DE[dR]L[Dab]P[Dap]-NH2; lactam 4-10; linker 5-8 via G) [listing 2 of 2 here]
